Columns and labels:
cotton (COTT) = test: Multi-crop greenhouse test, biocide, herbicide and safener applied to soil covers (Examples 65, 66; Tables 64, 65); type: in vivo
Description: (§1) Tests according to this invention in various crops indicate widespread application of the invention. In Examples 62-66 below are described tests with a variety of herbicides contacted with COUNTER® 15G in the presence and absence of MON-7400 (Antidote No. 12); MON-13900 (No. 1); MON-4660 (No. 16) and flurazole (No. 16). Those tests were conducted according to Procedures IV or V described above and illustrated further in other foregoing examples. Plants used in all tests were, for crops (as abbreviated in parentheses); cotton (COTT); soybean (SOBE); CORN, grain sorghum (GRSO); wheat (WHEA) and RICE, and the weeds giant foxtail (GIFT) and velvetleaf (VELE). The data in the tables below represent averages of two replications.
(§2) In this test the crops and weeds were planted 1.3 cm deep in 13.7 cm X 27.7 cm pans containing Dupo silt loam soil. The test safeners were applied in acetone solution and COUNTER 15G as dry granules to soil cover layers and incorporated by shaking in a bag. Treated cover layers were placed on seeded pans which were transferred to greenhouse benches and subirrigated. Herbicide was applied POE six (6) days after PPI initiation and observations of plant injury made ten (10) days later; results are shown in Table 61. The herbicide used in this example was BEACON (No. 8).
In another test in the several crops and weeds used in this test series, the herbicidal component was MON-12000 (No. 1); the other components were the same. the procedure used in this test was the same as that described in Example 62, modified to use a light overhead irrigation (about 0.32 cm/day) during days 4-7 of the test.
In yet another test in this series, XRD-498 (Herbicide No. 21) was used as the herbicidal component in contact with COUNTER 15G in the presence of the above safeners. The various components of the system (biocide, herbicide and safener) were applied concurrently to soil covers of the seeded plants.

Giant foxtail (GIFT) = test: Multi-crop greenhouse test, soil-applied (Examples 65, 66; Tables 64, 65); type: in vivo
Description: as §1, §2
(§3) In another test in the several crops and weeds used in this test series, the herbicidal component was MON-12000 (No. 1); the other components were the same. the procedure used in this test was the same as that described in Example 62, modified to use a light overhead irrigation (about 0.32 cm/day) during days 4-7 of the test. Table 64 […]

grain sorghum (GRSO) = test: as above; type: in vivo
Description: as §1, §2, §3

Corn = test: as above; type: in vivo
Description: as §1, §2, §3

RICE = test: as above; type: in vivo
Description: as §1, §2, §3

Velvetleaf (VELE) = test: Greenhouse test Procedure VII (same examples); type: in vivo, Abutilon theophrasti; settings: Antidote + Biocide No. 1 in furrow
From the text: This procedure describes interaction among herbicide, biocide and antidote when the biocide and the antidote is applied to a soil furrow containing crop seed before emergence of the crop and the herbicide is applied after emergence of the crop and weeds. The soil and planting depth was described in Procedure IV. The containers for comparison, the biocide and antidote applications to soil furrows were described in Procedure VI. In this procedure, the seed beds of the first, second, third and fourth containers are covered by soil layers not treated with herbicide. The containers were then placed on a bench in a greenhouse and subirrigated as required for the duration of the test. The herbicide, dispersed or dissolved in water containing 0.25% v/v nonionic surfactant (X-77) was applied by a track sprayer (187 L/ha) to the emerged plants of the second, third and fourth containers about five days after planting. All treatments were run in duplicate. Plant response was observed according to Procedure IV. Variations in this procedure will be noted in the examples.
In this example, tests were conducted according to Procedure VII for the POE application of the herbicides following in-furrow application of COUNTER® 15G insecticide (BIOCIDE No. 1) and the antidote on the pre-planted test seeds. In this test, the herbicides were Nos. 1 (MON-12000), 10 (ALLY®) and #4 (HARMONY®) and the Antidote Nos. 1, 7, 12 and 33.
These in-furrow treatments comprised a 50-50 mix of blended granules of COUNTER with and without 5G granular antidotes at 7.4 + 7.4 mg/cm or 1.1 + 0.37 mg active ingredient (a.i.)/cm. The in-furrow initiation of the test was followed five (5) days later with POE application of the herbicides; observations were made eight (8) days later. Table 38 […]

[1] = Table 64, Herb. No. 1 0.018 Kg/Ha + Biocide No. 1 8.96 Kg/Ha + Antidote 4.48 Kg/Ha
[2] = Table 64, Herb. No. 1 0.07 Kg/Ha + Biocide No. 1 8.96 Kg/Ha + Antidote 4.48 Kg/Ha
[3] = Table 64, Herb. No. 1 0.28 Kg/Ha + Biocide No. 1 8.96 Kg/Ha + Antidote 4.48 Kg/Ha
[4] = Table 65, Herb. No. 1 0.018 Kg/Ha + Biocide No. 1 8.96 Kg/Ha + Antidote 4.48 Kg/Ha
[5] = Table 65, Herb. No. 1 0.07 Kg/Ha + Biocide No. 1 8.96 Kg/Ha + Antidote 4.48 Kg/Ha
[6] = Table 65, Herb. No. 1 0.28 Kg/Ha + Biocide No. 1 8.96 Kg/Ha + Antidote 4.48 Kg/Ha

SMILES: COC(=O)COC(c1ccccc1)c1ccccc1 [compound 12]
- % Inhibition COTT (cotton (COTT); [1]): 10%
- % Inhibition COTT (cotton (COTT); [2]): 40%
- % Inhibition COTT (cotton (COTT); [3]): 40%
- % Inhibition COTT (cotton (COTT); [4]): 15%
- % Inhibition COTT (cotton (COTT); [5]): 10%
- % Inhibition COTT (cotton (COTT); [6]): 35%
- % Inhibition GIFT (Giant foxtail (GIFT); [1]): 30%
- % Inhibition GIFT (Giant foxtail (GIFT); [2]): 70%
- % Inhibition GIFT (Giant foxtail (GIFT); [3]): 75%
- % Inhibition GIFT (Giant foxtail (GIFT); [4]): 25%
- % Inhibition GIFT (Giant foxtail (GIFT); [5]): 80%
- % Inhibition GIFT (Giant foxtail (GIFT); [6]): 85%
- % Inhibition GRSO (grain sorghum (GRSO); [1]): 0%
- % Inhibition GRSO (grain sorghum (GRSO); [2]): 15%
- % Inhibition GRSO (grain sorghum (GRSO); [3]): 0%
- % Inhibition GRSO (grain sorghum (GRSO); [4]): 0%
- % Inhibition GRSO (grain sorghum (GRSO); [5]): 20%
- % Inhibition GRSO (grain sorghum (GRSO); [6]): 55%
- % Inhibition Corn (Corn; [1]): 0%
- % Inhibition Corn (Corn; [2]): 10%
- % Inhibition Corn (Corn; [3]): 10%
- % Inhibition Corn (Corn; [4]): 0%
- % Inhibition Corn (Corn; [5]): 0%
- % Inhibition Corn (Corn; [6]): 20%
- % Inhibition RICE (RICE; [1]): 0%
- % Inhibition RICE (RICE; [2]): 10%
- % Inhibition RICE (RICE; [3]): 10%
- % Inhibition RICE (RICE; [4]): 0%
- % Inhibition RICE (RICE; [5]): 20%
- % Inhibition RICE (RICE; [6]): 70%
- % Inhibition VELE (Velvetleaf (VELE); Herbicide No. 1 0.14 Kg/Ha POE, 8 days after POE): 90%
- % Inhibition VELE (Velvetleaf (VELE); Herbicide No. 4 0.17 Kg/Ha POE, 8 days after POE): 85%
- % Inhibition VELE (Velvetleaf (VELE); Herbicide No. 5 0.07 Kg/Ha POE, 8 days after POE): 85%
- % Inhibition VELE (Velvetleaf (VELE); Herbicide No. 6 0.01 Kg/Ha POE): 65%
- % Inhibition VELE (Velvetleaf (VELE); Herbicide No. 7 0.56 Kg/Ha POE, 8 days after POE): 75%
- % Inhibition VELE (Velvetleaf (VELE); Herbicide No. 9 0.009 Kg/Ha POE): 85%
- % Inhibition VELE (Velvetleaf (VELE); Herbicide No. 10 0.002 Kg/Ha POE, 8 days after POE): 90%
- % Inhibition VELE (Velvetleaf (VELE); Herbicide No. 15 0.0044 Kg/Ha POE, 8 days after POE): 75%
- % Inhibition VELE (Velvetleaf (VELE); Herbicide No. 16 0.01 Kg/Ha POE): 25%
- % Inhibition VELE (Velvetleaf (VELE); Herbicide No. 18 0.0044 Kg/Ha POE): 70%
- % Inhibition VELE (Velvetleaf (VELE); Herbicide No. 19 0.28 Kg/Ha POE): 60%
- % Inhibition VELE (Velvetleaf (VELE); Herbicide No. 21 0.14 Kg/Ha POE): 85%
- % Inhibition VELE (Velvetleaf (VELE); Herbicide No. 23 0.0006 Kg/Ha POE): 65%

Source: EP0565593B1, “REDUCING PESTICIDAL INTERACTIONS IN CROPS” (priority 1990, dated 1992)
